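48-hour exposure; five concentrations; linearly interpolated endpoints. The concentration for 50% growth inhibition is given as GI50.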 Activity calls are given as the source filed them. Rule as the data show it: active = GI50 up to about 1.1 µM and inactive = higher.
How the values were obtained:
Test in all cases: inhibition of tumour cell growth, NCI panel, 48 h
OVCAR-4 = system: OVCAR-4
MDA-MB-435 = system: MDA-MB-435
SR = system: SR
RPMI-8226 = system: RPMI-8226
SF-295 = system: SF-295
RXF 393 = system: RXF 393
DU-145 = system: DU-145
Malme-3M = system: Malme-3M
NCI/ADR-RES = system: NCI/ADR-RES
SW-620 = system: SW-620
NCI-H226 = system: NCI-H226
OVCAR-8 = system: OVCAR-8
CAKI-1 = system: CAKI-1
MDA-MB-231 = system: MDA-MB-231
SN12C = system: SN12C
NCI-H522 = system: NCI-H522
NCI-H460 = system: NCI-H460
HL-60 = system: HL-60
MDA-N = system: MDA-N
SK-MEL-28 = system: SK-MEL-28
CCRF-CEM = system: CCRF-CEM
786-0 = system: 786-0
HCT-116 = system: HCT-116
ACHN = system: ACHN
U-251 = system: U-251
TK-10 = system: TK-10
K562 = system: K562
SNB-19 = system: SNB-19
BT-549 = system: BT-549
HOP-62 = system: HOP-62
SF-268 = system: SF-268
HT-29 = system: HT-29
UACC-257 = system: UACC-257
HCT-15 = system: HCT-15
A549 = system: A549
HCC 2998 = system: HCC 2998
HOP-92 = system: HOP-92
OVCAR-3 = system: OVCAR-3
MOLT-4 = system: MOLT-4
LOX IMVI = system: LOX IMVI
UO-31 = system: UO-31
IGROV-1 = system: IGROV-1
KM12 = system: KM12
EKVX = system: EKVX
OVCAR-5 = system: OVCAR-5
NCI-H23 = system: NCI-H23
SNB-75 = system: SNB-75
MCF7 = system: MCF7
SF-539 = system: SF-539
A498 = system: A498
PC-3 = system: PC-3
Hs-578T = system: Hs-578T
SK-MEL-5 = system: SK-MEL-5
COLO 205 = system: COLO 205
SK-OV-3 = system: SK-OV-3
UACC-62 = system: UACC-62
M14 = system: M14

NC(Cc1ccc(O)cn1)C(=O)NC(C(=O)O)c1ccccc1 (centres undefined)
GI50 (OVCAR-4): > 100 µM (inactive)
GI50 (MDA-MB-435): > 100 µM (inactive)
GI50 (SR): > 100 µM (inactive)
GI50 (RPMI-8226): > 100 µM (inactive)
GI50 (SF-295): > 100 µM (inactive)
GI50 (RXF 393): > 100 µM (inactive)
GI50 (DU-145): > 100 µM (inactive)
GI50 (Malme-3M): > 100 µM (inactive)
GI50 (NCI/ADR-RES): > 100 µM (inactive)
GI50 (SW-620): > 100 µM (inactive)
GI50 (NCI-H226): > 100 µM (inactive)
GI50 (OVCAR-8): > 100 µM (inactive)
GI50 (CAKI-1): > 100 µM (inactive)
GI50 (MDA-MB-231): > 100 µM (inactive)
GI50 (SN12C): > 100 µM (inactive)
GI50 (NCI-H522): > 100 µM (inactive)
GI50 (NCI-H460): > 100 µM (inactive)
GI50 (HL-60): > 100 µM (inactive)
GI50 (MDA-N): > 100 µM (inactive)
GI50 (SK-MEL-28): > 100 µM (inactive)
GI50 (CCRF-CEM): > 100 µM (inactive)
GI50 (786-0): > 100 µM (inactive)
GI50 (HCT-116): > 100 µM (inactive)
GI50 (ACHN): > 100 µM (inactive)
GI50 (U-251): > 100 µM (inactive)
GI50 (TK-10): > 100 µM (inactive)
GI50 (K562): > 100 µM (inactive)
GI50 (SNB-19): > 100 µM (inactive)
GI50 (BT-549): > 100 µM (inactive)
GI50 (HOP-62): > 100 µM (inactive)
GI50 (SF-268): > 100 µM (inactive)
GI50 (HT-29): > 100 µM (inactive)
GI50 (UACC-257): > 100 µM (inactive)
GI50 (HCT-15): > 100 µM
GI50 (A549): > 100 µM (inactive)
GI50 (HCC 2998): > 100 µM (inactive)
GI50 (HOP-92): > 100 µM (inactive)
GI50 (OVCAR-3): > 100 µM (inactive)
GI50 (MOLT-4): > 100 µM (inactive)
GI50 (LOX IMVI): > 100 µM (inactive)
GI50 (UO-31): > 100 µM (inactive)
GI50 (IGROV-1): > 100 µM (inactive)
GI50 (KM12): > 100 µM (inactive)
GI50 (EKVX): > 100 µM (inactive)
GI50 (OVCAR-5): > 100 µM (inactive)
GI50 (NCI-H23): > 100 µM (inactive)
GI50 (SNB-75): > 100 µM (inactive)
GI50 (MCF7): > 100 µM (inactive)
GI50 (SF-539): > 100 µM (inactive)
GI50 (A498): > 100 µM (inactive)
GI50 (PC-3): > 100 µM (inactive)
GI50 (Hs-578T): > 100 µM (inactive)
GI50 (SK-MEL-5): > 100 µM (inactive)
GI50 (COLO 205): > 100 µM (inactive)

O=C(O)C(Cc1ccc(O)cn1)NC(=O)C(F)(F)F (centres undefined)
GI50 (MDA-MB-435): > 100 µM (inactive)
GI50 (SR): > 100 µM (inactive)
GI50 (RPMI-8226): > 100 µM (inactive)
GI50 (SF-295): > 100 µM (inactive)
GI50 (RXF 393): > 100 µM (inactive)
GI50 (DU-145): > 100 µM (inactive)
GI50 (Malme-3M): > 100 µM (inactive)
GI50 (NCI/ADR-RES): > 100 µM (inactive)
GI50 (SW-620): > 100 µM (inactive)
GI50 (NCI-H226): > 100 µM (inactive)
GI50 (OVCAR-8): > 100 µM (inactive)
GI50 (CAKI-1): > 100 µM (inactive)
GI50 (MDA-MB-231): > 100 µM (inactive)
GI50 (SN12C): > 100 µM (inactive)
GI50 (NCI-H522): > 100 µM (inactive)
GI50 (NCI-H460): > 100 µM (inactive)
GI50 (HL-60): > 100 µM (inactive)
GI50 (MDA-N): > 100 µM (inactive)
GI50 (SK-MEL-28): > 100 µM (inactive)
GI50 (CCRF-CEM): > 100 µM (inactive)
GI50 (786-0): > 100 µM (inactive)
GI50 (HCT-116): > 100 µM (inactive)
GI50 (ACHN): > 100 µM (inactive)
GI50 (U-251): > 100 µM (inactive)
GI50 (TK-10): > 100 µM (inactive)
GI50 (K562): > 100 µM (inactive)
GI50 (SNB-19): > 100 µM (inactive)
GI50 (BT-549): > 100 µM (inactive)
GI50 (HOP-62): > 100 µM (inactive)
GI50 (SF-268): > 100 µM (inactive)
GI50 (HT-29): > 100 µM (inactive)
GI50 (UACC-257): > 100 µM (inactive)
GI50 (HCT-15): > 100 µM
GI50 (A549): > 100 µM (inactive)
GI50 (HCC 2998): > 100 µM (inactive)
GI50 (OVCAR-3): > 100 µM (inactive)
GI50 (LOX IMVI): > 100 µM (inactive)
GI50 (UO-31): > 100 µM (inactive)
GI50 (IGROV-1): > 100 µM (inactive)
GI50 (KM12): > 100 µM (inactive)
GI50 (EKVX): > 100 µM (inactive)
GI50 (OVCAR-5): > 100 µM (inactive)
GI50 (NCI-H23): > 100 µM (inactive)
GI50 (MCF7): > 100 µM (inactive)
GI50 (SF-539): > 100 µM (inactive)
GI50 (A498): > 100 µM (inactive)
GI50 (PC-3): > 100 µM (inactive)
GI50 (Hs-578T): > 100 µM (inactive)
GI50 (SK-MEL-5): > 100 µM (inactive)
GI50 (COLO 205): > 100 µM (inactive)

O/N=C(/C(Cl)=C(Cl)Cl)C(Cl)Cl
GI50 (OVCAR-4): 16.7 µM (inactive)
GI50 (MDA-MB-435): 18.2 µM (inactive)
GI50 (SR): 10.8 µM (inactive)
GI50 (RPMI-8226): 14.2 µM (inactive)
GI50 (SF-295): 19.2 µM (inactive)
GI50 (RXF 393): 16.3 µM (inactive)
GI50 (DU-145): 29.6 µM (inactive)
GI50 (Malme-3M): 28.8 µM (inactive)
GI50 (NCI/ADR-RES): 32.2 µM (inactive)
GI50 (SW-620): 20.4 µM (inactive)
GI50 (NCI-H226): 31 µM (inactive)
GI50 (OVCAR-8): 23.9 µM (inactive)
GI50 (CAKI-1): 33.6 µM (inactive)
GI50 (MDA-MB-231): 19.2 µM (inactive)
GI50 (SN12C): 18.1 µM (inactive)
GI50 (NCI-H460): 37.2 µM (inactive)
GI50 (HL-60): 8.28 µM (inactive)
GI50 (MDA-N): 17 µM (inactive)
GI50 (SK-MEL-28): 15.2 µM (inactive)
GI50 (CCRF-CEM): 12.4 µM (inactive)
GI50 (786-0): 18.7 µM (inactive)
GI50 (HCT-116): 17.9 µM (inactive)
GI50 (SK-OV-3): 28.8 µM (inactive)
GI50 (ACHN): 17.9 µM (inactive)
GI50 (UACC-62): 24.7 µM (inactive)
GI50 (U-251): 19.5 µM (inactive)
GI50 (TK-10): 18.3 µM (inactive)
GI50 (K562): 13.3 µM (inactive)
GI50 (SNB-19): 31.5 µM (inactive)
GI50 (BT-549): 21.3 µM (inactive)
GI50 (HOP-62): 23.3 µM (inactive)
GI50 (SF-268): 17 µM (inactive)
GI50 (HT-29): 16.7 µM (inactive)
GI50 (UACC-257): 19.6 µM (inactive)
GI50 (HCT-15): 17.2 µM
GI50 (A549): > 100 µM (inactive)
GI50 (HCC 2998): 31.4 µM (inactive)
GI50 (OVCAR-3): 19.6 µM (inactive)
GI50 (MOLT-4): 15.9 µM (inactive)
GI50 (LOX IMVI): 17.2 µM (inactive)
GI50 (UO-31): 20.9 µM (inactive)
GI50 (IGROV-1): 20.4 µM (inactive)
GI50 (M14): 20.2 µM (inactive)
GI50 (KM12): 22.4 µM (inactive)
GI50 (EKVX): 42.5 µM (inactive)
GI50 (OVCAR-5): 25.9 µM (inactive)
GI50 (NCI-H23): 14.9 µM (inactive)
GI50 (SNB-75): 19 µM (inactive)
GI50 (MCF7): 25.6 µM (inactive)
GI50 (SF-539): 21.5 µM (inactive)
GI50 (A498): > 100 µM (inactive)
GI50 (PC-3): 17.3 µM (inactive)
GI50 (Hs-578T): 19.1 µM (inactive)
GI50 (SK-MEL-5): 19.5 µM (inactive)
GI50 (COLO 205): 20.7 µM (inactive)

From ChEMBL document CHEMBL1201862, “PubChem BioAssay data set” (2004)
